US10792287B2, “Methods for treating mitochondrial diseases” (The Regents of the University of California, priority 2015, dated 2020)
Structures can show the parent of a compound that is named as a salt. Where two headings read alike, the source gives them in different places.

Tests used:
[1] = tested on: control osteosarcoma cells and LHON mutant (11778 G>A) cells; experiment: Validation of complex I-driven ATP synthesis assay with substrates and inhibitors of mitochondrial complexes; format: cell-based; conditions: for mitochondrial ATP synthesis: inhibitor at 1 μM, malate/pyruvate substrates, permeabilized cells
Description: The data is presented as ATP synthesis rate+standard deviation from one representative experiment.

LHON cybrids (11778 G>A) = experiment: Complex I-driven ATP synthesis in rotenone-inhibited LHON mutant cybrids (luciferase-based, high-throughput screen and concentration-response); format: cell-based
Ndufs4 KO mice [2] = experiment: Starburst amacrine cell count (ChAT staining of whole retina); format: in vivo, mouse; conditions: two weeks (P21-P35) intraperitoneal injections
Method: 20× confocal images of whole retina stained with ChAT (marker of starburst amacrine cells) from wild type (FIG. 22A), Ndusf4 KO vehicle treated (FIG. 22B), Ndufs4 KO papaverine treated (FIG. 22C), Ndufs4 KO zolpidem treated (FIG. 22D), and Ndufs4 KO rapamycin treated (FIG. 22E) are shown.
(§1) Wild type and Ndufs4 knockout mice were placed in one of five groups: vehicle, papaverine (20 mg/kg), zolpidem (20 mg/kg), rapamycin (8 mg/kg), or idebenone (200 mg/kg). For papaverine, zolpidem, and rapamycin, drug was dissolved in DMSO which was diluted in 5% PEG-400/5% Tween-20 in PBS. Vehicle contained all components except for the drug. The solution was then sterile filtered and intraperitoneal injections were performed using a 30 gauge needle. Idebenone was administered as a jelly and consumed orally.

Ndufs4 knockout mice = experiment: Visual cliff test; format: in vivo, mouse; conditions: P21-P35 treatment; papaverine 20 mg/kg, zolpidem 20 mg/kg, rapamycin 8 mg/kg i.p.; idebenone 200 mg/kg oral
control healthy cybrid = experiment: Mitochondrial copy number (MT-TL1/B2M ratio), control cybrids; format: cell-based; conditions: control cells; 24 hrs exposure
Method: (§2) FIGS. 14A-14C illustrate the effect of drugs on the mitochondrial copy number. Difference of mitochondrial copy number between 11778 (G>A) mutant and control cybrids (FIG. 14A). Effect of zolpidem and papaverine on the control healthy cybrid mitochondrial copy number (FIG. 14B) and 11778 (G>A) mutant cybrid mitochondrial copy number (FIG. 14C). Cells were treated with either vehicle or one of the drugs at specified concentration for 24 h. The cells were harvested after 24 h and the ratio between MT-TL1 and B2M was determined. Data is presented as average relative fold change±std. deviation from three independent observations. Statistical significance (p<0.05) is denoted by ‘*’ and was determined by one way ANOVA and Dunett's post hoc test.

[3] = tested on: innate immune/inflammatory response in Ndufs4 KO retina; experiment: Retinal gene expression of innate immune and inflammatory markers after drug treatment (Example 3); format: in vivo, mouse; conditions: Ndufs4 KO mice; doses as in drug formulation
Method: The graphs represent RNA expression of B2m (FIG. 21A), Tlr2 (FIG. 21B), Cxc110 (FIG. 21C), Cc15 (FIG. 21D), and Aif1 (FIG. 21E) in the wild type and Ndufs4 knockout retina. Bars represent mean delta Ct values normalized to housekeeping genes, Actb and Mapk1. Error bars represent standard error of the mean. Statistical significance was determined by two-tailed student's t test. * P<0.05, ** P<0.01, **** P<0.0001.
as §1
We have previously shown that inflammatory gene expression of Aif1, Tlr2, B2m, Cc15, and Cxc110 are all elevated in the Ndufs4 KO mouse compared to wild type by more than 3-fold, indicating an inflammatory pathomechanism of mitochondrial blindness (Yu et al., Proc Natl Acad Sci USA, 2015, 112(42): E5689-98). […] Papaverine, zolpidem, rapamycin, and idebenone were administered to Ndufs4 KO mice to determine whether their protection of vision (FIG. 20) was through an anti-inflammatory mechanism of action. […] Thus, papaverine, zolpidem, and rapamycin appear to protect mitochondrial loss of vision through an antiinflammatory mechanism.

[4] = tested on: 11778 (G>A) mutant cybrid; experiment: Mitochondrial copy number (MT-TL1/B2M ratio), mutant cybrids; format: cell-based; conditions: LHON mutant cells [11778(G>A)]; 24 hrs exposure
Method: as §2

Ndufs4 KO mice [5] = experiment: Microglia activation (Iba1 staining of whole mount retinas); format: in vivo, mouse; conditions: two weeks (P21-P35) intraperitoneal treatment
[6] = tested on: 11778 (G>A) mutant lymphoblasts; experiment: Effect of rotenone on complex I-driven ATP synthesis in lymphoblasts; format: cell-based; conditions: gender-matched lymphoblasts
Method: (§3) The data is presented as average+standard deviation from three independent experiments and single asterisk signifies the statistical significance (P<0.05) between the control and LHON mutant cells.
For the lymphoblasts, drug-treated cells were centrifuged and resuspended at a concentration of 2×10^6 cells/mL, in the permeabilization buffer containing activated streptolysin O (Sigma). After 10 min incubation at 4° C., the cells were centrifuged and resuspended in transfer buffer at the same concentration. The cells were then incubated at 37° C. for 10 min followed by centrifugation and resuspension in buffer A containing malate (5 mM, Sigma), sodium pyruvate (5 mM, Sigma) and high purity ADP (200 μM, Apollo Scientific). Subsequently, 50 μL of buffer A containing 100,000 cells were plated in each wells of a 96-well plate. After 20 min of incubation at the room temperature the complex I-driven ATP synthesis was measured by using ATP Bioluminescence Assay Kit CLS II (Roche) following manufacturer's instruction.

[7] = tested on: 11778(G>A) mutant cybrids; experiment: Effect of rotenone on complex I-driven ATP synthesis in mutant vs control osteosarcoma cybrids; format: cell-based
Description: as §3
Among the various LHON-associated mutations, 11778(G>A) mutation encoding ND4 subunit of mitochondrial complex I is the most prevalent and the most severe (Oostra et al., J Med Genet, 1994, 31, 280-286). It has been previously hypothesized that some external stress factors are responsible for the precipitation of vision loss in LHON (Chalmers et al., Biochimica et Biophysica Acta, 1999, 1410, 147-158). To understand the 11778(G>A) mutant mitochondrial functionality under stress, we evaluated the effect of a complex I inhibitor on complex I-driven ATP synthesis using an osteosarcoma cybrid model (FIG. 11A).
Measurement of complex I-driven ATP synthesis: The cybrid cells were seeded at 50000 cells/well in 100 μL of medium, in a white, opaque-bottom, 96-well plate coated with poly-D-lysine (Corning) and was incubated at 37° C. overnight. […] After 2 hr incubation at 37° C., the medium from the plates were aspirated using an automatic plate washer (Biotek) and complex I-driven ATP synthesis was measured following the protocol of Yoshida and Fujikawa (Fujikawa et al., Biochemical and Biophysical Research Communications, 2010, 401, 538-543). […]

[8] = tested on: inflammatory genes in retinas of Ndufs4 KO mice; experiment: qRT-PCR of inflammatory genes in retinas after rapamycin treatment (Example 1); format: in vivo, mouse; conditions: rapamycin 8 mg/kg intraperitoneally for 9 days
Method: FIG. 6 depicts an experimental reversal of inflammatory gene induction by rapamycin. White bars, a mean increase in transcript level of 16/16 inflammatory markers was observed by qRT-PCR in retinas of Ndufs4 KO mice compared to wild type. […] Statistical significance determined by student's t test. * P<0.05, ** P<0.01.
Rapamycin was dissolved in DMSO to 100 mg/mL. This was diluted in 5% PEG-400/5% Tween-20 (vehicle) to a concentration of 0.6 mg/mL, sterile filtered, and stored at −80 for long-term storage. Rapamycin treated mice were injected with 132 microliters/10 g body weight for a final dose of 8.0 mg/kg (Johnson et al., Science, 2013, 342, 1524-1528). Vehicle mice were injected with equal volume of PBS and DMSO lacking rapamycin. […]
The change in PCR products as the reaction proceeded was monitored by SYBR green dye (Invitrogen, Grand Island, N.Y.). […] Quantification cycle (Cq) values obtained by the Lightcycler were analyzed by normalizing the values to the reference genes and delta Cq values were calculated to determine relative gene expression values compared to wild type. Delta delta Cq was also calculated to determine the fold change difference between Ndufs4 knockout and wild type. Significance, p<0.05 was determined using two sample independent student's t-test statistics with equal sample size and assuming equal variance.

[9] = 20 h; read-out: Fold change of ATP synthesis rate greater than 2x Median Absolution Deviation

antimycin A
mitochondrial ATP synthesis [1]: inhibited the mitochondrial ATP synthesis

CN1CCc2cc3c(cc2[C@H]1[C@@H]1OC(=O)c2c1ccc1c2OCO1)OCO3 [bicuculine, bicuculline]
effect of GABAA antagonist on reversal of rotenone inhibition by zolpidem (LHON cybrids (11778 G>A); zolpidem 30 μM and bicuculline 30 μM for 22 h, then rotenone 0.03 μM 2 h): no significant effect

CC[C@H]1/C=C/C=C/C[C@@H](C)[C@H](O)[C@@](C)(O)C(=O)[C@@H](C)[C@H](O)[C@@H](C)C(=O)[C@@H](C)[C@H](O)[C@@H](C)/C=C/C(=O)O[C@@H]2[C@H](C)[C@H](CC1)O[C@]1(CC[C@H](C)[C@H](C[C@@H](C)O)O1)[C@H]2C [oligomycin]
mitochondrial ATP synthesis [1]: inhibited the mitochondrial ATP synthesis

CN(Cc1cnc2nc(N)nc(N)c2n1)c1ccc(C(=O)N[C@@H](CCC(=O)O)C(=O)O)cc1 [Methotrexate, methotrexate]
fold induction at 10 µM (LHON cybrids (11778 G>A); [9]): 1.2

Cc1ccc(-c2nc3ccc(C)cn3c2CC(=O)N(C)C)cc1 [zolpidem]
fold induction at 10 µM (LHON cybrids (11778 G>A); 20 h, read-out: Fold change of ATP synthesis rate greater than 2x Median Absolution Deviation): 1.4 | reversal of rotenone sensitivity of complex I-driven ATP synthesis (LHON cybrids (11778 G>A); different concentrations of drug 22 h, then rotenone 0.03 μM 2 h): dose-dependently reversed the rotenone-sensitivity | ATP synthesis rate relative to vehicle-treated cells after rotenone (LHON cybrids (11778 G>A); zolpidem 30 μM pre-treatment; rotenone 0.03 μM): 2 times | ATP synthesis rate compared to vehicle pre-treated cells (LHON cybrids (11778 G>A); zolpidem 3, 10, and 30 μM pre-treatment; rotenone 0.03 μM): significantly higher ATP synthesis rate | starburst amacrine cell loss (Ndufs4 KO mice [2]): significant protection of startburst amacrine cells from apoptosis | visual function (median # edge detections) (Ndufs4 knockout mice): visual function was preserved | ratio of mtDNA/nDNA (control healthy cybrid): did not significantly change the ratio of mtDNA/nDNA | innate immune/inflammatory gene expression (B2m, Tlr2, Cxcl10, Ccl5, Aif1) in retina [3]: significantly inhibited a portion of the innate immune/inflammatory response | ratio of mtDNA/nDNA [4]: did not significantly change the ratio of mtDNA/nDNA | microglia activation (Ndufs4 KO mice [5]): decrease in microglia activation

Cn1cnc([N+](=O)[O-])c1Sc1ncnc2nc[nH]c12 [Azathioprine, azathioprine]
fold induction at 10 µM (LHON cybrids (11778 G>A); [9]): 1.4

COC1=C(OC)C(=O)C(CCCCCCCCCCO)=C(C)C1=O [idebenone]
visual function (median # edge detections) (Ndufs4 knockout mice): not significant | innate immune/inflammatory gene expression (B2m, Tlr2, Cxcl10, Ccl5, Aif1) in retina [3]: significantly inhibited a portion of the innate immune/inflammatory response

O=c1[nH]cc(F)c(=O)[nH]1 [Fluorouracil, 5-fluorouracil]
fold induction at 10 µM (LHON cybrids (11778 G>A); [9]): 1.1

C=C(C)[C@H]1Cc2c(ccc3c2O[C@@H]2COc4cc(OC)c(OC)cc4[C@@H]2C3=O)O1 [rotenone]
mitochondrial ATP synthesis [1]: inhibited the mitochondrial ATP synthesis | differential effect of rotenone on mutant vs control ATP synthesis [6]: clearly reproducible | rotenone-dependent ATP synthesis defect across 11778, 3460 and 14484 mutant cybrids ([7]; 3 most common LHON mutations in cybrids): directly in proportion to the severity of the disease in humans | sensitivity of complex I-driven ATP synthesis to rotenone ([7]; rotenone 0.001 μM-1 μM, 24 h, mutant clones HCT22, HFF3 vs control HGA2, H1959): highly sensitive to rotenone when compared to control

O=S(=O)(NCCNC/C=C/c1ccc(Br)cc1)c1cccc2cnccc12 [H89]
effect of H89 on rotenone rescue effect of zolpidem (LHON cybrids (11778 G>A); H89 3 μM with zolpidem 30 μM): reversed the rotenone rescue effect of zolpidem | effect of PKA inhibitor on papaverine's protection from rotenone (LHON cybrids (11778 G>A); papaverine 30 μM and H89 3 μM for 22 h, then rotenone 0.03 μM 2 h): did not decrease papaverine's ability to protect from rotenone

COc1ccc(OC)c(C(O)C(C)N)c1 (stereo not shown) [Methoxamine HCl, 2-amino-1-(2,5-dimethoxyphenyl)-1-propanol]
fold induction at 10 µM (LHON cybrids (11778 G>A); [9]): 1.4

CO[C@H]1C[C@@H]2CC[C@@H](C)[C@@](O)(O2)C(=O)C(=O)N2CCCC[C@H]2C(=O)O[C@H]([C@H](C)C[C@@H]2CC[C@@H](O)[C@H](OC)C2)CC(=O)[C@H](C)/C=C(\C)[C@@H](O)[C@@H](OC)C(=O)[C@H](C)C[C@H](C)/C=C/C=C/C=C/1C [rapamycin]
transcripts with inhibition of mean amplitude of induction of inflammatory genes [8]: 16/16

C1N2CN3CN1CN(C2)C3 [Methenamine, methenamine]
fold induction at 10 µM (LHON cybrids (11778 G>A); [9]): 1.3

O=C(O)CCC(=O)O [succinate]
reversal of inhibitor-induced inhibition of ATP synthesis ([1]; succinate 5 mM vs rotenone, ascorbate/TMPD vs antimycin): reversed
